Experiments:
Experiment in all cases: MIC, standard microtiter broth serial dilution test
Type in all cases: cell-based
M. catarrhalis ATCC 0324 = conditions: Moraxella catarrhalis, ATCC0324
S. pneumoniae 0541 = conditions: Streptococcus pneumoniae
[1] = system: S. aureus Smith ATCC 0329; conditions: Staphylococcus aureus, ATCC0329
E. faecalis ATCC 0004 = conditions: Enterococcus faecalis, ATCC0004
S. pyogenes 0542 = conditions: Streptococcus pyogenes
H. influenzae ATCC 0529 = conditions: Haemophilus influenzae, ATCC0529

SMILES	MIC (M. catarrhalis ATCC 0324)	MIC (S. pneumoniae 0541)	MIC [1]	MIC (E. faecalis ATCC 0004)	MIC (S. pyogenes 0542)	MIC (H. influenzae ATCC 0529)
CC[C@H]1OC(=O)[C@H](C)[C@@H](OC2C[C@@](C)(OC)[C@@H](OC(=O)CCNCCOCC#Cc3ccc4c(c3)c(=O)c(C(=O)O)cn4CC)[C@H](C)O2)[C@H](C)[C@@H](OC2O[C@H](C)C[C@H](N(C)C)[C@H]2O)[C@](C)(O)C[C@@H](C)CN(C)[C@H](C)[C@@H](OC)[C@]1(C)O (some centres unmarked) [Example 23, 11-O-Methyl-4″-O-(3-{2-[3-(3-Carboxy-1-ethyl-4-oxo-1,4-dihydro-quinolin-6-yl)-prop-2-ynyloxy]-ethylamino}-propionyl)-azithromycin]	≤ 2 µg/mL	≤ 1 µg/mL	≤ 1 µg/mL	≤ 1 µg/mL	≤ 1 µg/mL	≤ 2 µg/mL
CC[C@H]1OC(=O)[C@H](C)[C@@H](OC2C[C@@](C)(OC)[C@@H](OC(=O)CCOCCOCCOc3ccc4c(=O)c(C(=O)O)cn(C5CC5)c4c3)[C@H](C)O2)[C@H](C)[C@@H](OC2O[C@H](C)C[C@H](N(C)C)[C@H]2O)[C@](C)(O)C[C@@H](C)CN(C)[C@H](C)[C@@H](O)[C@]1(C)O (some centres unmarked) [Example 35, 4″-O-(3-{2-[2-(3-Carboxy-1-cyclopropyl-4-oxo-1,4-dihydro-quinolin-7-yloxy)-ethoxy]-ethoxy}-propionyl)-azithromycin]	≤ 2 µg/mL	≤ 1 µg/mL	≤ 1 µg/mL	≤ 1 µg/mL	≤ 1 µg/mL	≤ 2 µg/mL
CC[C@H]1OC(=O)[C@H](C)[C@@H](OC2C[C@@](C)(OC)[C@@H](OC(=O)CCNCCOCC#Cc3ccc4c(c3)c(=O)c(C(=O)O)cn4CC)[C@H](C)O2)[C@H](C)[C@@H](OC2O[C@H](C)C[C@H](N(C)C)[C@H]2O)[C@](C)(OC)C[C@@H](C)C(=O)[C@H](C)[C@@H](O)[C@]1(C)O (some centres unmarked) [Example 36, 4″-O-(3-{2-[3-(3-carboxy-1-ethyl-4-oxo-1,4-dihydro-quinolin-6-yl)-prop-2-ynyloxy]-ethylamino}-propionyl)-6-O-methyl-erythromycin A]	≤ 2 µg/mL	≤ 1 µg/mL	≤ 1 µg/mL	≤ 1 µg/mL	≤ 1 µg/mL	≤ 2 µg/mL
CC[C@H]1OC(=O)[C@H](C)[C@@H](OC2C[C@@](C)(OC)[C@@H](OC(=O)CCOCCOCCOc3ccc4c(=O)c(C(=O)O)cn(C5CC5)c4c3)[C@H](C)O2)[C@H](C)[C@@H](O[C@@H]2O[C@H](C)C[C@H](N(C)C)[C@H]2O)[C@](C)(OC)C[C@@H](C)C(=O)[C@H](C)[C@@H](O)[C@]1(C)O (some centres unmarked) [Example 38, 4″-O-(3-{2-[2-(3-Carboxy-1-cyclopropyl-4-oxo-1,4-dihydro-quinolin-7-yloxy)-ethoxy]-ethoxy}-propionyl)-6-O-methyl-erythromycin A]	≤ 2 µg/mL	≤ 1 µg/mL	≤ 1 µg/mL	≤ 1 µg/mL	≤ 1 µg/mL	≤ 2 µg/mL
CC[C@H]1OC(=O)[C@H](C)[C@@H](O[C@H]2C[C@@](C)(OC)[C@@H](OC(=O)CCOCCOCCNc3cc4c(=O)c(C(=O)O)cn(C5CC5)c4cc3N(C)C)[C@H](C)O2)[C@H](C)[C@@H](OC2O[C@H](C)C[C@H](N(C)C)[C@H]2O)[C@](C)(O)C[C@@H](C)CN(C)[C@H](C)[C@@H](O)[C@]1(C)O (some centres unmarked) [Example 48, 4″-O-(3-{2-[2-(3-Carboxy-1-cyclopropyl-7-dimethylamino-4-oxo-1,4-dihydro-quinolin-6-ylamino)-ethoxy]-ethoxy}-propionyl)azithromycin]	≤ 2 µg/mL	≤ 1 µg/mL	≤ 1 µg/mL	≤ 1 µg/mL	≤ 1 µg/mL	≤ 2 µg/mL
CC[C@H]1OC(=O)[C@H](C)[C@@H](O[C@H]2C[C@@](C)(OC)[C@@H](OC(=O)CCNCCOCCOCC#Cc3ccc4c(c3)c(=O)c(C(=O)O)cn4CC)[C@H](C)O2)[C@H](C)[C@@H](O[C@@H]2O[C@H](C)C[C@H](N(C)C)[C@H]2O)[C@](C)(O)C[C@@H](C)CN(C)[C@H](C)[C@@H](O)[C@]1(C)O [Example 62, 4″-O-[3-(2-{2-[3-(3-Carboxy-1-ethyl-4-oxo-1,4-dihydro-quinolin-6-yl)-prop-2-ynyloxy]-ethoxy}-ethylamino)-propionyl]-azithromycin]	≤ 2 µg/mL	≤ 1 µg/mL	≤ 1 µg/mL	≤ 1 µg/mL	≤ 1 µg/mL	≤ 2 µg/mL

Now from value to compound:

MIC (M. catarrhalis ATCC 0324)	MIC (S. pneumoniae 0541)	MIC [1]	MIC (E. faecalis ATCC 0004)	MIC (S. pyogenes 0542)	MIC (H. influenzae ATCC 0529)	SMILES
≤ 2 µg/mL	≤ 1 µg/mL	≤ 1 µg/mL	≤ 1 µg/mL	≤ 1 µg/mL	≤ 2 µg/mL	CCOC(=O)c1cn(CC)c2ccc(C#CCN3CCN(CCC(=O)O[C@H]4[C@H](C)OC(O[C@H]5[C@H](C)[C@@H](OC6O[C@H](C)C[C@H](N(C)C)[C@H]6O)[C@](C)(OC)C[C@@H](C)C(=O)[C@H](C)[C@@H](O)[C@](C)(O)[C@@H](CC)OC(=O)[C@@H]5C)C[C@@]4(C)OC)CC3)cc2c1=O (some centres unmarked) [Example 3, 4″-O-(3-{4-[3-(3-Ethoxycarbonyl-1-ethyl-4-oxo-1,4-dihydro-quinolin-6-yl)-prop-2-ynyl]-piperazin-1-yl}-propionyl)-6-O-methyl-erythromycin A]
≤ 2 µg/mL	≤ 1 µg/mL	≤ 1 µg/mL	≤ 1 µg/mL	≤ 1 µg/mL	≤ 2 µg/mL	CC[C@H]1OC(=O)[C@H](C)[C@@H](O[C@H]2C[C@@](C)(OC)[C@@H](OC(=O)CCN3CCN(CC#Cc4ccc5c(c4)c(=O)c(C(=O)O)cn5CC)CC3)[C@H](C)O2)[C@H](C)[C@@H](O[C@@H]2O[C@H](C)C[C@H](N(C)C)[C@H]2O)[C@](C)(O)C[C@@H](C)CN(C)[C@H](C)[C@@H](OC)[C@]1(C)O [Example 4]
	≤ 1 µg/mL	≤ 1 µg/mL	≤ 1 µg/mL	≤ 1 µg/mL		CC[C@H]1OC(=O)[C@H](C)[C@@H](O[C@H]2C[C@@](C)(OC)[C@@H](OC(=O)CCN3CCN(CCCc4ccc5c(c4)c(=O)c(C(=O)O)cn5CC)CC3)[C@H](C)O2)[C@H](C)[C@@H](O[C@@H]2O[C@H](C)C[C@H](N(C)C)[C@H]2O)[C@](C)(O)C[C@@H](C)CN(C)[C@H](C)[C@@H](OC)[C@]1(C)O [Example 5]
	≤ 1 µg/mL	≤ 1 µg/mL	≤ 1 µg/mL	≤ 1 µg/mL		CC[C@H]1OC(=O)[C@H](C)[C@@H](O[C@H]2C[C@@](C)(OC)[C@@H](OC(=O)CCOCCOCCNc3cc4c(=O)c(C(=O)O)cn(C5CC5)c4cc3Cl)[C@H](C)O2)[C@H](C)[C@@H](O[C@@H]2O[C@H](C)C[C@H](N(C)C)[C@H]2O)[C@](C)(OC)C[C@@H](C)C(=O)[C@H](C)[C@@H](O)[C@]1(C)O [Example 7, 4″-O-(3-{2-[2-(3-Carboxy-7-chloro-1-cyclopropyl-4-oxo-1,4-dihydro-quinolin-6-ylamino)-ethoxy]-ethoxy}-propionyl)-6-O-methyl-erythromycin A]
≤ 2 µg/mL	≤ 1 µg/mL	≤ 1 µg/mL	≤ 1 µg/mL	≤ 1 µg/mL	≤ 2 µg/mL	CC[C@H]1OC(=O)[C@H](C)[C@@H](OC2C[C@@](C)(OC)[C@@H](OC(=O)CNC(=O)CCOCCNc3c(F)cc4c(=O)c(C(=O)O)cn(C5CC5)c4c3OC)[C@H](C)O2)[C@H](C)[C@@H](O[C@@H]2O[C@H](C)C[C@H](N(C)C)[C@H]2O)[C@](C)(O)C[C@@H](C)CN(C)[C@H](C)[C@@H]2OC(=O)O[C@]12C (some centres unmarked) [Example 14, 4″-O-(2-{3-[2-(3-Carboxy-6-fluoro-1-cyclopropyl-8-methoxy-4-oxo-1,4-dihydro-quinolin-7-ylamino)-ethoxy]-propionylamino}-acetyl)-azithromycin 11,12-cyclic carbonate]
≤ 2 µg/mL	≤ 1 µg/mL	≤ 1 µg/mL	≤ 1 µg/mL	≤ 1 µg/mL	≤ 2 µg/mL	CC[C@H]1OC(=O)[C@H](C)[C@@H](OC2C[C@@](C)(OC)[C@@H](OC(=O)CCNCCOCCCc3ccc4c(c3)c(=O)c(C(=O)O)cn4CC)[C@H](C)O2)[C@H](C)[C@@H](OC2O[C@H](C)C[C@H](N(C)C)[C@H]2O)[C@](C)(O)C[C@@H](C)CN(C)[C@H](C)[C@@H](OC)[C@]1(C)O (some centres unmarked) [Example 24, 11-O-Methyl-4″-O-(3-{2-[3-(3-Carboxy-1-ethyl-4-oxo-1,4-dihydro-quinolin-6-yl)-propoxy]-ethylamino}-propionyl)-azithromycin]
≤ 2 µg/mL	≤ 1 µg/mL	≤ 1 µg/mL	≤ 1 µg/mL	≤ 1 µg/mL	≤ 2 µg/mL	CC[C@H]1OC(=O)[C@H](C)[C@@H](O[C@H]2C[C@@](C)(OC)[C@@H](OC(=O)CCOCCOCCNc3cc4c(=O)c(C(=O)O)cn(C5CC5)c4cc3Cl)[C@H](C)O2)[C@H](C)[C@@H](O[C@@H]2O[C@H](C)C[C@H](N(C)C)[C@H]2O)[C@](C)(OC)C[C@@H](C)C(=O)[C@H](C)[C@H]2NC(=O)O[C@@]21C [Example 26, 4″-O-(3-{2-[2-(3-Carboxy-7-chloro-1-cyclopropyl-4-oxo-1,4-dihydro-quinolin-6-ylamino)-ethoxy]-ethoxy}-propionyl)-6-O-methyl-erythromycin A 11,12-cyclic carbamate]
≤ 2 µg/mL	≤ 1 µg/mL	≤ 1 µg/mL	≤ 1 µg/mL	≤ 1 µg/mL	≤ 2 µg/mL	CC[C@H]1OC(=O)[C@H](C)[C@@H](O[C@H]2C[C@@](C)(OC)[C@@H](OC(=O)CCOCCOCCNc3cc4c(cc3F)c(=O)c(C(=O)O)cn4C3CC3)[C@H](C)O2)[C@H](C)[C@@H](O[C@@H]2O[C@H](C)C[C@H](N(C)C)[C@H]2O)[C@](C)(OC)C[C@@H](C)C(=O)[C@H](C)[C@@H](O)[C@]1(C)O [Example 27, 4″-O-(3-{2-[2-(3-Carboxy-6-fluoro-1-cyclopropyl-4-oxo-1,4-dihydro-quinolin-7-ylamino)-ethoxy]-ethoxy}-propionyl)-6-O-methyl-erythromycin A]
